Data reported in US20240366594A1, “Small Molecule Inhibitors of Formation of Neutrophil-Derived Extracellular Traps (NETosis) and Uses Thereof” (The Brigham and Women's Hospital, Inc., priority 2021, published 2024).

How the values were obtained:
mice challenged with LPS = experiment: In vivo LPS-induced septic shock; design: species or system mouse; settings: for platelet counts in the blood: 2 h post LPS challenge, compared with LPS alone, FIGS. 4C, 8D; for pro-inflammatory cytokine production (serum, ELISA): FIGS. 4E-4G; for neutrophils levels (blood and peritoneal lavage): FIGS. 8A-8C; for release of NETs by neutrophils in the peritoneal lavage (CitH3-positive neutrophils): cytofluorimetry, FIG. 4D; for body temperature 2 h post challenge: ricolinostat 30 mg/kg/dose or GSK484 25 mg/kg/dose i.p., FIG. 4B
Procedure: FIGS. 4A-G. Class I/IIb HDAC inhibition protects against systemic inflammation • (A) Time line of drug treatment and LPS priming and challenge. Mice were intraperitoneally injected, or not, with two doses of ricolinostat or GSK484 and were then intraperitoneally administered with two doses of LPS (−5 h, 1 mg/kg and 0 h, 2 mg/kg) to induce lethal sepsis. Peritoneal lavage and blood were collected 2 h after the LPS challenge. • (B) Body temperature was measured 2 h post challenge. • (C) Concentration of platelets in the blood was measured by cytofluorimetry. • (D) NETosis was measured as neutrophils (Ly6G+/CD11b+) positive for citrullinated histone H3 staining in the peritoneal lavage. • (E-G) Serum cytokines were measured by ELISA. […] Statistics were calculated using one-way ANOVA (*p<0.05; ** p<0.01; *** p<0.001; ****p<0.0001; n.s., not significant). n=15 for each group except the GSK484-treated group (n=10). Gray stars represent comparison of all experimental groups with the saline-treated healthy control. Black stars represent comparison of drug-treated groups with LPS-stimulated mice without drug treatment. Violin plots represent median (dashed line) with quartiles (dotted line). See also FIGS. 8A-F.
FIGS. 8A-F. Class I/IIb HDAC inhibition protects against systemic inflammation. • A-C) Neutrophils numbers and percentage were calculated in blood (A, B) and peritoneal lavage (C) of mice challenged, or not, with LPS. Saline group represent healthy mice. NT group represent mice that were challenged with LPS without receiving any drug. Ricolinostat (30 mg/kg/dose) or GSK484 (25 mg/kg/dose) were administered intraperitoneally at day −1, and 2 hour prior LPS priming. • D) Concentration of platelets in the blood was assessed by cytofluorimetry 2 hours post LPS-challenge. • E, F) Absolute amounts of serum cytokines were measured by ELISA. Violin plots represent median (dashed line) with quartiles (dotted line). Statistics were calculated using One-way ANOVA (*P<0.05; **P<0.01; ***P<0.001; ****P<0.0001; n.s., not significant). Grey stars represent comparison of all experimental groups with the saline control. Black stars represent comparison of drug treated groups with NT group.
Alternatively, neutrophils positive for citrullinated histone H3 were quantified by cytofluorimetry. Briefly, neutrophils from bronco-alveolar lavage fluid or peritoneal lavage fluid were stained for Ly6G, CD11b, CD45 and Zombie dye for 20 minutes at room temperature and then fixed with BD FACS Lysing Solution (cat #349202, BD Biosciences). Samples were washed twice with Intracellular Staining Permeabilization Wash buffer (cat #421002, Biolegend), incubated with anti-citrullinated histone H3 antibody (Abcam) 1 hour at room temperature and subsequently with PE anti-rabbit antibody for 30 minutes. Finally, samples were acquired with BD FACS Fortessa and neutrophils (CD45+/Ly6G+/CD11b+) positive for citrullinated histone H3 were quantified with FlowJo software.
8-week-old female mice were primed with 1 mg/kg of LPS intra peritoneum (i.p.) for 5 hours and then challenged with 2 mg/kg of LPS i.p. Ricolinostat was used at 30 mg/kg/dose, GSK484 at 25 mg/kg/dose and dexamethasone at 10 mg/kg/dose. Drugs were administered i.p. at day −1 and 2 hours prior priming. Blood samples were collected 2 hours post-challenge and cytokines were measured by ELISA. The platelet concentrations and neutrophils numbers in the blood and peritoneal cavity were calculated by cytofluorimetry using CountBright Absolute Cell Counting Beads (Thermo Scientific) according to the manufacturer's instructions. NETosis was measured as quantity of neutrophils in the peritoneal lavage positive for citrullinated histone H3 by cytofluorimetry.

human neutrophils = experiment: ROS production (luminol-HRP luminescence) in human neutrophils; format: cell-based; settings: ricolinostat 10 μM, 1 μM PMA 3 h; FIG. 1G left
Procedure: FIGS. 1A-H. Class I/II HDACs drive NET formation • (A and B) Freshly purified human (A) or mouse (B) neutrophils were treated with the indicated HDAC inhibitors at different doses (10, 2, 0.4, 0.08 μM), or with GSK484 (10 μM), for 1 h and then stimulated with 1 μM PMA for 3 h. Cells were fixed and stained with anti-citrullinated histone H3 (CitH3) antibody. NETosis induction was measured as the level of anti-CitH3 fluorescent signal. PMA alone represents 100% of NET induction. “-”: Cells treated with the highest dose of the indicated drug but not activated with PMA. • (C and D) Human neutrophils were treated, or not, with ricolinostat or GSK484 and then stimulated with 1 μM PMA. NETosis induction was measured as area of nuclei stained with DAPI. (C) 3D reconstruction of nuclei in each treatment (grid size 7.8 μm). (D) Quantification of DAPI signal from multiple fields of view (D) (n=9 for unstimulated, not pretreated with any drug [NT] and ricolinostat, n=7 for GSK484). • (E and F) Human neutrophils were treated as in (C-D), and immunoblot analysis of the indicated proteins was performed. Relative quantification of band intensity was analyzed with ImageJ software (F). White violins plots depict the quantification of histone H3 acetylation; red violin plots depict the quantification of histone H3 citrullination. […] ROS production was measured by luminescence with luminol-HRP. […]

Row | SMILES | platelet counts in the blood (mice challenged with LPS) | pro-inflammatory cytokine production (serum, ELISA) (mice challenged with LPS) | neutrophils levels (blood and peritoneal lavage) (mice challenged with LPS) | release of NETs by neutrophils in the peritoneal lavage (CitH3-positive neutrophils) (mice challenged with LPS) | body temperature 2 h post challenge (mice challenged with LPS) | reactive oxygen species (ROS) production (human neutrophils) | pro-inflammatory cytokine production (serum, ELISA), comparison with dexamethasone (mice challenged with LPS; dexamethasone 10 mg/kg/dose, ricolinostat 30 mg/kg/dose, FIGS. 8E and 8F)
1 | COc1cc(C(=O)N2CC[C@@H](O)[C@@H](N)C2)cc2nc(-c3cc4ccccc4n3CC3CC3)n(C)c12 [GSK484] | significantly higher | significantly decreased | increased neutrophils levels | reduced release of NETs | no temperature loss | – | –
2 | O=C(CCCCCCNC(=O)c1cnc(N(c2ccccc2)c2ccccc2)nc1)NO [ricolinostat] | significantly higher | significantly decreased | increased neutrophils levels | reduced release of NETs | no temperature loss | did not alter | efficiently reduced
